Measured values reported in ChEMBL document CHEMBL4004851, “Room Temperature Neutron Crystallography of Drug Resistant HIV-1 Protease Uncovers Limitations of X-ray Structural Analysis at 100 K” (J Med Chem, 2017).

Assays:
[1] = system: Human immunodeficiency virus type 1 protease (Human immunodeficiency virus 1), Q72874 [V32I,I47V,V82I]
[2] = system: Human immunodeficiency virus 1
Description: Binding affinity to wild type HIV1 protease assessed as deltaG level at pH 5.0 and 20 degC by ITC method

[3] = target: T1, Human immunodeficiency virus type 1 protease (Human immunodeficiency virus 1, UniProt Q72874, I47V/V32I/V82I); test: Binding affinity to HIV1 protease V32I/I47V/V82I triple mutant at pH 5.8 and 28 degC by ITC method
T1 sequence (Q72874 entry or part of it I47V/V32I/V82I): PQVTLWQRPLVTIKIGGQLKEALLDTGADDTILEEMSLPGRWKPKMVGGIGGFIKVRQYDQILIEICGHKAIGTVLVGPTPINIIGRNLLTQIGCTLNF

[4] = target: T1, Human immunodeficiency virus type 1 protease; test: Binding affinity to HIV1 protease V32I/I47V/V82I triple mutant at pH 4.0 and 28 degC by ITC method
[5] = system: Human immunodeficiency virus 1; test: Binding affinity to wild type HIV1 protease assessed as -TdeltaS level at pH 5.0 and 20 degC by ITC method
[6] = system: Human immunodeficiency virus type 1 protease (Human immunodeficiency virus 1), Q72874 [V32I,I47V,V82I]; remark: listed apart in the source
[7] = system: Human immunodeficiency virus type 1 protease (Human immunodeficiency virus 1), Q72874 [V32I,I47V,V82I]; remark: listed apart in the source
[8] = system: Human immunodeficiency virus type 1 protease (Human immunodeficiency virus 1), Q72874 [V32I,I47V,V82I]; remark: listed apart in the source
[9] = Binding affinity to wild type HIV1 protease at pH 5.0 and 20 degC by ITC method; set-up: species or system Human immunodeficiency virus 1
[10] = system: Human immunodeficiency virus type 1 protease (Human immunodeficiency virus 1), Q72874 [V32I,I47V,V82I]; remark: listed apart in the source
[11] = system: Human immunodeficiency virus type 1 protease (Human immunodeficiency virus 1), Q72874 [V32I,I47V,V82I]; remark: listed apart in the source
[12] = system: Human immunodeficiency virus type 1 protease (Human immunodeficiency virus 1), Q72874 [V32I,I47V,V82I]; remark: listed apart in the source
[13] = system: Human immunodeficiency virus 1; remark: listed apart in the source
Description: Binding affinity to wild type HIV1 protease assessed as deltaS level at pH 5.0 and 20 degC by ITC method

[14] = system: Human immunodeficiency virus 1; remark: listed apart in the source
Description: Binding affinity to wild type HIV1 protease assessed as deltaH level at pH 5.0 and 20 degC by ITC method

[15] = system: Human immunodeficiency virus type 1 protease (Human immunodeficiency virus 1), Q72874 [V32I,I47V,V82I]; remark: listed apart in the source

Human immunodeficiency virus type 1 protease (Human immunodeficiency virus 1), Q72874 [V32I,I47V,V82I], sequence (Q72874 entry or part of it V32I/I47V/V82I): as the sequence (Q72874 entry or part of it I47V/V32I/V82I) above

Work on `CC(C)CN(C[C@@H](O)[C@H](Cc1ccccc1)NC(=O)O[C@H]1CCOC1)S(=O)(=O)c1ccc(N)cc1` [AMPRENAVIR] yielded a -TdeltaS [1] of -4.2 kcal/mol, a deltaG [2] of -12.6 kcal/mol and a Ki [3] of 35 nM. It also gave a Ki [4] of 10 nM, a -TdeltaS [5] of -5.3 kcal/mol and a deltaG [6] of -10.2 kcal/mol. It also gave a deltaS [7] of 14.3 cal/mol.K, a deltaG [8] of -11 kcal/mol and a Ki [9] of 0.39 nM. The deltaH [10] was -6 kcal/mol, the -TdeltaS [11] was -4.3 kcal/mol and the deltaS [12] was 14 cal/mol.K. For the same compound, the deltaS [13] was 18.1 cal/mol.K, the deltaH [14] was -7.3 kcal/mol and the deltaH [15] was -6.8 kcal/mol.
